From ChEMBL document CHEMBL4665763, “Molecular Networking-Guided Discovery and Characterization of Stechlisins, a Group of Cyclic Lipopeptides from a Pseudomonas sp” (2020) come the findings set out here.

Values after ≈ are worked out from the molar mass of the structure shown. Active and inactive are the calls of the source.

In general, MIC refers to the smallest concentration in the dilution series that meets the test's criterion for growth inhibition. Higher therefore signals weaker potency.

The test has as its system Moraxella catarrhalis. The test is described as follows: Antimicrobial activity against Moraxella catarrhalis FH6810 after 18 hrs by micro broth dilution assay. It is filed as functional. (In general: Broth dilution looks for growth in wells or tubes with falling amounts of substance.)
Turning to `CCCCCCC[C@H](O)CC(=O)N[C@H](CC(C)C)C(=O)N[C@H](CCC(=O)O)C(=O)N[C@H]1C(=O)N[C@H](CC(C)C)C(=O)N[C@H](CC(C)C)C(=O)N[C@H](CO)C(=O)N[C@@H](CC(C)C)C(=O)N[C@H](CCC(N)=O)C(=O)N[C@@H](CC(C)C)C(=O)N[C@@H]([C@@H](C)CC)C(=O)N[C@@H](CCC(=O)O)C(=O)O[C@@H]1C`, the MIC was more than 128 µg/mL. `CCCCCCC[C@H](O)CC(=O)N[C@H](CC(C)C)C(=O)N[C@H](CC(=O)O)C(=O)N[C@H]1C(=O)N[C@H](CC(C)C)C(=O)N[C@H](CC(C)C)C(=O)N[C@H](CO)C(=O)N[C@@H](CC(C)C)C(=O)N[C@H](CCC(N)=O)C(=O)N[C@@H](CC(C)C)C(=O)N[C@@H](C(C)C)C(=O)N[C@@H](CCC(=O)O)C(=O)O[C@@H]1C` yielded an MIC of more than 128 µg/mL. In turn, `CCCCCCC[C@H](O)CC(=O)N[C@H](CC(C)C)C(=O)N[C@H](CC(=O)O)C(=O)N[C@H]1C(=O)N[C@H](CC(C)C)C(=O)N[C@H](CC(C)C)C(=O)N[C@H](CO)C(=O)N[C@@H](CC(C)C)C(=O)N[C@H](CCC(N)=O)C(=O)N[C@@H](CC(C)C)C(=O)N[C@@H](CC(C)C)C(=O)N[C@@H](CCC(=O)O)C(=O)O[C@@H]1C` returned an MIC of more than 128 µg/mL. `CCCCCCCCC[C@H](O)CC(=O)N[C@H](CC(C)C)C(=O)N[C@H](CC(=O)O)C(=O)N[C@H]1C(=O)N[C@H](CC(C)C)C(=O)N[C@H](CC(C)C)C(=O)N[C@H](CO)C(=O)N[C@@H](CC(C)C)C(=O)N[C@H](CCC(N)=O)C(=O)N[C@@H](CC(C)C)C(=O)N[C@@H]([C@@H](C)CC)C(=O)N[C@@H](CCC(=O)O)C(=O)O[C@@H]1C` showed an MIC of 4 µg/mL (≈ 2.78 µM). `CCCCC[C@H](O)CC(=O)N[C@H](CC(C)C)C(=O)N[C@H](CC(=O)O)C(=O)N[C@H]1C(=O)N[C@H](CC(C)C)C(=O)N[C@H](CC(C)C)C(=O)N[C@H](CO)C(=O)N[C@@H](CC(C)C)C(=O)N[C@H](CCC(N)=O)C(=O)N[C@@H](CC(C)C)C(=O)N[C@@H]([C@@H](C)CC)C(=O)N[C@@H](CCC(=O)O)C(=O)O[C@@H]1C`: the outcome was inactive. With `CCCCC[C@H](O)CC(=O)N[C@H](CC(C)C)C(=O)N[C@H](CCC(=O)O)C(=O)N[C@H]1C(=O)N[C@H](CC(C)C)C(=O)N[C@H](CC(C)C)C(=O)N[C@H](CO)C(=O)N[C@@H](CC(C)C)C(=O)N[C@H](CCC(N)=O)C(=O)N[C@@H](CC(C)C)C(=O)N[C@@H](CC(C)C)C(=O)N[C@@H](CCC(=O)O)C(=O)O[C@@H]1C`, the MIC was more than 128 µg/mL. Consider `CCCCCCC[C@H](O)CC(=O)N[C@H](CC(C)C)C(=O)N[C@H](CC(=O)O)C(=O)N[C@H]1C(=O)N[C@H](CC(C)C)C(=O)N[C@H](CC(C)C)C(=O)N[C@H](CO)C(=O)N[C@@H](CC(C)C)C(=O)N[C@H](CCC(N)=O)C(=O)N[C@@H](CC(C)C)C(=O)N[C@@H]([C@@H](C)CC)C(=O)N[C@@H](CCC(=O)O)C(=O)O[C@@H]1C`, for which it took 32 µg/mL (≈ 22.7 µM) to inhibit growth (MIC).
